Test results: publication PMC6882465, “Towards discovery of new leishmanicidal scaffolds able to inhibit Leishmania GSK-3” (Journal of Enzyme Inhibition and Medicinal Chemistry, 2019)
Read-outs that look alike come from different tables or passages of the source.

What was measured:
[1] = test system: L. pifanoi axenic amastigotes; test: Leishmanicidal assay on axenic amastigotes (inhibition of MTT reduction); assay type: cell-based, Leishmania pifanoi; settings: 96 h, read-out: L. pifanoi amast. ax EC50
Procedure: (§1) Leishmania parasites were resuspended with the corresponding drug concentration at 2 × 10^6 parasites/mL (final concentration) in their respective growth media in 96 microwell plates (200 µL/well). The parasites were allowed to growth for 72 h at 26 °C for promastigotes and 96 h at 32 °C for axenic amastigotes. Afterwards, inhibition of proliferation was measured by the inhibition of MTT reduction by the parasites. […] MTT reduction was allowed to proceed for 2 h at the respective temperature, and the resulting formazan solubilised by addition of 50 µL/well of 10% SDS. Afterwards, the plate was read at 595 nm in a BioRad Microplate-reader, model 680. Samples were made by triplicate and assays were repeated at least twice.

LdGSK-3 = LdGSK-3 (Leishmania donovani, UniProt A6N857); test: Inhibition of LdGSK-3 with Kinase Glo; assay type: biochemical; settings: for LdGSK-3 % inhibition: @10 µM; for % inhibition @ 10µM (initial screening on LdGSK3): Table S2; for percentage of inhibition of LdGSK-3: assayed at 10 µM
Procedure: Assessment of inhibition of LdGSK-3 with Kinase Glo^TM
The reaction was allowed to proceed for 30 min at 30 °C, then it was incubated at room temperature for another 10 min after addition of Kinase Glo reagents (Promega, Ref. V6712). ATP consumption by LdGSK-3 was measured indirectly through end-point luminescence measurement of each well in a Varioskan Flash microplate reader (Thermo).

[2] = test system: peritoneal murine macrophages (PMM); test: Cytotoxicity on peritoneal murine macrophages (MTT); assay type: cell-based, Balb/c mice; settings: 48 h
Procedure: Peritoneal murine macrophages were obtained from 8-week-old Balb/c mice previously elicited by i.p. injection with 1 mL of 10% thioglycollate medium three days prior to extraction. Macrophages were obtained by peritoneal washing (10 mL PBS, 4 °C). After extraction, macrophages were maintained in RPMI 1640-HIFCS at 37 °C and 5% CO2.
For peritoneal macrophages, the cells were seeded in 96 microwell plates at 1 × 10^5 cells/well and incubated (37 °C, 5% CO2) with the drug for 48 h. The toxicity was evaluated by the inhibition of MTT reduction as above.

[3] = test system: L. infantum promastigotes; test: Leishmanicidal assay on promastigotes (inhibition of MTT reduction); assay type: cell-based, Leishmania infantum; settings: 72 h
Procedure: as §1

hGSK-3β [4] = target: T1, hGSK-3β (Homo sapiens, UniProt P49841); settings: Table S1, cited from earlier work
hGSK-3β [5] = target: T1, hGSK-3β; test: hGSK-3β inhibition; assay type: biochemical
[6] = Table S1, read-out: LdGSK-3 IC50
[7] = Table 2, read-out: LdGSK-3 IC50

T1 sequence (P49841 whole entry): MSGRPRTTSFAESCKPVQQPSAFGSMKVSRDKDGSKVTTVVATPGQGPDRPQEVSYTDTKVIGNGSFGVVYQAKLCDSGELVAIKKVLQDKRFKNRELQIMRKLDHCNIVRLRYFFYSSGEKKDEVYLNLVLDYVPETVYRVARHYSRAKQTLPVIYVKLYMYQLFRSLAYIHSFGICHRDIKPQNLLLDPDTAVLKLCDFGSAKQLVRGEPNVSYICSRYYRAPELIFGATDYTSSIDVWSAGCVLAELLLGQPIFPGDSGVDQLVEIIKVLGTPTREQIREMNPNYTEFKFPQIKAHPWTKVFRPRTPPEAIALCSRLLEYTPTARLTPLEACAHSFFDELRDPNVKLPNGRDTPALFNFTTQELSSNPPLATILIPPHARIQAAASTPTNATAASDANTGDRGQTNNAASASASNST
LdGSK-3, sequence (A6N857 entry or part of it): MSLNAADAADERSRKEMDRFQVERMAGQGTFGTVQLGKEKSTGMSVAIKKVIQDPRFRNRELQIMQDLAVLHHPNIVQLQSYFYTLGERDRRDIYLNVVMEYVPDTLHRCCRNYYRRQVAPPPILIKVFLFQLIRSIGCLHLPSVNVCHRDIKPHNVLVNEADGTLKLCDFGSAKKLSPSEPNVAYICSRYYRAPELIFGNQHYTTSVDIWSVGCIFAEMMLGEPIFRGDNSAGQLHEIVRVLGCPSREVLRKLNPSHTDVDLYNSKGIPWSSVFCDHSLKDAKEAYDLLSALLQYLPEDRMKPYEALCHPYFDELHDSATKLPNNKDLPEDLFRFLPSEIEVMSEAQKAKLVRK

Structure (SMILES)	EC50 ([1]; Table S1) [µM]	EC50 ([3]; Table S1) [µM]	LdGSK-3 % inhibition (LdGSK-3; Table S1) [%]	% inhibition @ 10µM (initial screening on LdGSK3) (LdGSK-3) [%]	further results
O=c1sn(-c2cccc3ccccc23)c(=O)n1Cc1ccccc1 [Compound 2, tideglusib]					EC50 ([1]; Leishmania pifanoi, Table 1): 7.1 ± 1.8 µM; IC50 (LdGSK-3): 0.32 ± 0.05 µM; EC50 ([2]; Mus musculus, Macrophage, Table 1): > 50 µM; EC50 ([3]; Leishmania infantum, Table 1): 17.6 ± 2.3 µM
O=C(CCl)c1ccc(Br)s1 [Compound 6]	1.7 ± 0.1	0.9 ± 0.1			IC50 (hGSK-3β [4]; ref 4 (supplement)): 10 µM; IC50 (LdGSK-3; [6]): 12.5 ± 2.4 µM; EC50 ([2]; Table S1): 6.8 ± 0.4 µM
O=C(CCl)c1ccc(Cl)cc1 [Compound 7]	0.5 ± 0.1	6.6 ± 0.5			IC50 (LdGSK-3; [6]): 7.5 ± 1.4 µM; EC50 ([2]; Table S1): 7.3 ± 1 µM
O=C(CCl)c1cc(Cl)sc1Cl [Compound 8]	2.4 ± 0.4	4.4 ± 0.1			IC50 (hGSK-3β [4]; ref 4 (supplement)): 5 µM; IC50 (LdGSK-3; [6]): 10.3 ± 2 µM; EC50 ([2]; Table S1): 3.6 ± 0.5 µM
O=C(CCl)c1cc(Br)c(Br)s1 [Compound 10]	1.2 ± 0.2	8.6 ± 0.3			IC50 (LdGSK-3; [6]): 3 ± 0.4 µM; EC50 ([2]; Table S1): 7.9 ± 0.6 µM
CCCCCCCC(=O)NNC(=O)c1c(O)c2ccccc2n(C)c1=O [Compound 12]	20.8	> 50	< 20		IC50 (hGSK-3β [4]; ref 7 (supplement)): 8.7 ± 0.4 µM
O=C(CBr)C1=C(c2c[nH]c3ccccc23)C(=O)NC1=O [Compound 15]	> 50	> 50			IC50 (hGSK-3β [4]; ref 8 (supplement)): 0.047 ± 0.007 µM; IC50 (LdGSK-3; [6]): 17.7 ± 2.7 µM
COc1ccc(CNC(=O)Nc2nc(C)c(C(C)=O)s2)cc1 [Compound 18]	> 50	> 50	< 20		
COc1ccc(CNC(=O)Nc2nc(C)c(C(=O)CBr)s2)cc1 [Compound 19]	14.4 ± 2.6	> 25	< 20		IC50 (hGSK-3β [5]; Table S1, reference not given): 9.72 ± 0.57 µM; EC50 ([2]; Table S1): 32 ± 3.1 µM
COc1ccc(CNC(=O)Nc2nc(C)c(C(=O)C(Br)Br)s2)cc1 [Compound 20]	> 50	> 50	< 20		IC50 (hGSK-3β [5]; Table S1, reference not given): 6.22 ± 0.2 µM
CCOC(=O)c1sc(NC(=O)CCc2cccc(Cl)c2)nc1C [Compound 21]	> 50	> 50	< 20		IC50 (hGSK-3β [5]; Table S1, reference not given): 7.23 ± 0.26 µM
CCOC(=O)c1sc(NC(=O)CCc2cc(OC)c(OC)c(OC)c2)nc1C [Compound 22]	> 50	> 50	< 20		IC50 (hGSK-3β [5]; Table S1, reference not given): 7.04 ± 0.27 µM
O=C(Cc1cccc(Cl)c1)Nc1nc2ccc(C(F)(F)F)cc2s1 [Compound 23]	> 50	> 50	< 20		IC50 (hGSK-3β [5]; Table S1, reference not given): 9.75 ± 0.26 µM
COc1cccc(CC(=O)Nc2nc3ccc(OC)cc3s2)c1 [Compound 24]	> 50	> 50	< 20		IC50 (hGSK-3β [5]; Table S1, reference not given): 7.33 ± 0.15 µM
CN(C)S(=O)(=O)c1ccc(-c2cnc(N)c(-c3nc4ccc(F)cc4[nH]3)c2)cc1 [Compound 71]				74.63±1.76	IC50 (hGSK-3β [5]; Table 2): 1.23 ± 0.14 µM; IC50 (LdGSK-3; [7]): 3.6 µM; percentage of inhibition of LdGSK-3 (LdGSK-3): higher than 50%
COc1ccc(Nc2nccc(N(C)c3n[nH]c4c(F)cccc34)n2)cc1S(C)(=O)=O [Compound 95]				90.25±1.12	IC50 (hGSK-3β [5]; Table 2): 1.4 ± 0.25 µM; IC50 (LdGSK-3; [7]): 0.46 ± 0.07 µM; percentage of inhibition of LdGSK-3 (LdGSK-3): higher than 50%
CN(C)Cc1cccc(Nc2nccc(-c3ccc(NCCN)c(C#N)c3)n2)c1 [Compound 119]				100.29±1.24	IC50 (hGSK-3β [5]; Table 2): 0.24 ± 0.04 µM; IC50 (LdGSK-3; [7]): 0.27 µM; percentage of inhibition of LdGSK-3 (LdGSK-3): higher than 50%
Cc1ccc(S(C)(=O)=O)cc1Nc1nccc(-c2sc(N)nc2-c2ccccc2)n1 [Compound 124]				70.59±3.12	IC50 (hGSK-3β [5]; Table 2): 0.81 ± 0.34 µM; IC50 (LdGSK-3; [7]): 6 µM; percentage of inhibition of LdGSK-3 (LdGSK-3): higher than 50%
N#Cc1cc(-c2ccnc(Nc3cccc(CN4CCOCC4)c3)n2)ccc1NCCN [Compound 128]				99.46±0.78	IC50 (hGSK-3β [5]; Table 2): 1.32 ± 0.35 µM; IC50 (LdGSK-3; [7]): 1.7 µM; percentage of inhibition of LdGSK-3 (LdGSK-3): higher than 50%
O=S(=O)(c1cccc(CSc2nnc(-c3ccc4c(c3)OCO4)o2)c1)N1CCOCC1 [Compound 151]				61.89±2.34	IC50 (hGSK-3β [5]; Table 2): 0.02 ± 0.01 µM; IC50 (LdGSK-3; [7]): 2.54 ± 0.48 µM; percentage of inhibition of LdGSK-3 (LdGSK-3): higher than 50%
CC(C)(C)c1csc(NC(=O)c2ccc([N+](=O)[O-])s2)n1 [Compound 181]				5.90±2.90	
CCN(Cc1nc2ccc(C(=O)N3CCN(c4ncccn4)CC3)cc2[nH]1)C1CCCc2cccnc21 (stereo not shown) [Compound 182]				9.60±1.20	
COc1ccc2ncc(Cl)c(CCN3CC[C@H](NCc4cc5c(cn4)OCS5)[C@@H](O)C3)c2n1 [Compound 183]				14.80±2.25	
O=C(CSc1nnc(-c2ccc3c(c2)OCO3)o1)N(Cc1ccco1)CC(F)(F)F [Compound 184]				53.23±3.29	percentage of inhibition of LdGSK-3 (LdGSK-3): higher than 50%
O=C(Nc1ccc(C(F)(F)F)cc1)Nc1cccc([N+](=O)[O-])c1 [Compound 185]				1.70±0.75	
